Reference: ChEMBL document CHEMBL5244229, “Thiazole-containing compounds as therapeutic targets for cancer therapy” (Eur J Med Chem, 2020)
In brackets after ≈: the same amount, converted by molar mass.

Key:
HepG2 [1] = assay: Anticancer activity against human HepG2 cells; assay type: functional, cell-based
HCT-116 [2] = assay: Anticancer activity against human HCT-116 cells; assay type: functional, cell-based
T47D = assay: Cytotoxicity against human T47D cells; assay type: functional, cell-based
K562 [3] = assay: Anticancer activity against human K562 cells; assay type: functional, cell-based
SMMC-7721 = assay: Cytotoxicity against human SMMC-7721 cells; assay type: functional, cell-based
NCI-H460 [4] = assay: Cytotoxicity against human NCI-H460 cells assessed as reduction in cell viability incubated for 48 hrs by MTT assay; assay type: functional
MCF7 [5] = assay: Cytotoxicity against human MCF7 cells assessed as reduction in cell viability incubated for 48 hrs by MTT assay; assay type: functional
NCI-H460 [6] = assay: Cytotoxicity against human NCI-H460 cells; assay type: functional, cell-based
A549 [7] = assay: Antiproliferative activity against human A549 cells; assay type: functional, cell-based
HT-29 = assay: Cytotoxicity against human HT-29 cells; assay type: functional, cell-based
MKN-45 = assay: Cytotoxicity against human MKN-45 cells; assay type: functional, cell-based
[8] = Cytotoxicity against human U-87 MG cells; assay type: functional, cell-based, U-87MG ATCC
MV4-11 = assay: Anticancer activity against human MV4-11 cells; assay type: functional, cell-based
MCF7 [9] = assay: Antiproliferative activity against human MCF7 cells assessed as reduction in cell viability incubated for 24 hrs by Celltiter-Glo cell viability assay; assay type: functional, cell-based; settings: MCF7, 24 h
HepG2 [10] = assay: Antitumor activity against human HepG2 cells; assay type: functional, cell-based
MCF7 [11] = assay: Antitumor activity against human MCF7 cells; assay type: functional, cell-based
HepG2 [12] = assay: Cytotoxicity against human HepG2 cells assessed as reduction in cell viability incubated for 24 hrs by WST-1 assay; assay type: functional, cell-based; settings: HepG2, 24 h
MCF7 [13] = assay: Cytotoxicity against human MCF7 cells assessed as reduction in cell viability by MTT assay; assay type: functional, cell-based
MDA-MB-231 = assay: Cytotoxicity against human MDA-MB-231 cells assessed as reduction in cell viability by MTT assay; assay type: functional, cell-based
HCT-116 [14] = assay: Cytotoxicity against human HCT-116 cells assessed as reduction in cell viability by MTT assay; assay type: functional, cell-based
HeLa [15] = assay: Cytotoxicity against human HeLa cells assessed as reduction in cell viability by MTT assay; assay type: functional, cell-based
MCF7 [16] = assay: Cytotoxicity against human MCF7 cells; assay type: functional, cell-based
A549 [17] = assay: Anticancer activity against human A549 cells at 5 microg/ml relative to control; assay type: functional; settings: dose 5 µg/ml
MDA-MB-435 = assay: Cytotoxicity against human MDA-MB-435 cells; assay type: functional, cell-based
HL-60 = assay: Cytotoxicity against human HL-60 cells; assay type: functional, cell-based
SF-295 = assay: Cytotoxicity against human SF-295 cells; assay type: functional, cell-based
K562 [18] = assay: Cytotoxicity against human K562 cells assessed as reduction in cell viability measured after 48 hrs by MTS assay; assay type: functional, cell-based; settings: K562, 48 h
HeLa [19] = assay: Cytotoxicity against human HeLa cells assessed as reduction in cell viability measured after 48 hrs by MTS assay; assay type: functional, cell-based
SF-268 = assay: Antitumor activity against human SF-268 cells; assay type: functional
Tubulin = Tubulin (Bos taurus, UniProt Q6B856+Q862L2+Q862F3); assay: Antitubulin activity against bovine brain tubulin polymerization by spectrophotometric method
Colon 26 [20] = assay: Cytotoxicity against mouse Colon 26 cells assessed as inhibition of cell growth; assay type: functional, cell-based
Colon 26 [21] = assay: Antitumor activity against mouse Colon 26 cells xenografted in mouse assessed as tumor suppression rate at 40 mg/kg, po; assay type: functional
A549 [22] = assay: Induction of apoptosis in human A549 cells assessed as early apoptotic cells for 24 hrs by FITC-annexin V/PI based flow cytometry; assay type: functional
C6 [23] = assay: Induction of apoptosis in rat C6 cells assessed as early apoptotic cells for 24 hrs by FITC-annexin V/PI based flow cytometry; assay type: functional
A549 [24] = assay: Induction of apoptosis in human A549 cells assessed as late apoptotic cells for 24 hrs by FITC-annexin V/PI based flow cytometry; assay type: functional
C6 [25] = assay: Induction of apoptosis in rat C6 cells assessed as late apoptotic cells for 24 hrs by FITC-annexin V/PI based flow cytometry; assay type: functional
C6 [26] = assay: Inhibition of Akt in rat C6 cells measured after 30 mins by ELISA analysis; assay type: cell-based
[27] = Anticancer activity against human PBMC cells; assay type: functional, cell-based
[28] = molecular target: Nuclear factor NF-kappa-B complex (Homo sapiens) (UniProt Q00653+P19838+Q04206); assay: Inhibition of NF-kB (unknown origin); assay type: protein-complex assay
Sequence of Nuclear factor NF-kappa-B complex (Homo sapiens) (P19838 whole entry, looked up): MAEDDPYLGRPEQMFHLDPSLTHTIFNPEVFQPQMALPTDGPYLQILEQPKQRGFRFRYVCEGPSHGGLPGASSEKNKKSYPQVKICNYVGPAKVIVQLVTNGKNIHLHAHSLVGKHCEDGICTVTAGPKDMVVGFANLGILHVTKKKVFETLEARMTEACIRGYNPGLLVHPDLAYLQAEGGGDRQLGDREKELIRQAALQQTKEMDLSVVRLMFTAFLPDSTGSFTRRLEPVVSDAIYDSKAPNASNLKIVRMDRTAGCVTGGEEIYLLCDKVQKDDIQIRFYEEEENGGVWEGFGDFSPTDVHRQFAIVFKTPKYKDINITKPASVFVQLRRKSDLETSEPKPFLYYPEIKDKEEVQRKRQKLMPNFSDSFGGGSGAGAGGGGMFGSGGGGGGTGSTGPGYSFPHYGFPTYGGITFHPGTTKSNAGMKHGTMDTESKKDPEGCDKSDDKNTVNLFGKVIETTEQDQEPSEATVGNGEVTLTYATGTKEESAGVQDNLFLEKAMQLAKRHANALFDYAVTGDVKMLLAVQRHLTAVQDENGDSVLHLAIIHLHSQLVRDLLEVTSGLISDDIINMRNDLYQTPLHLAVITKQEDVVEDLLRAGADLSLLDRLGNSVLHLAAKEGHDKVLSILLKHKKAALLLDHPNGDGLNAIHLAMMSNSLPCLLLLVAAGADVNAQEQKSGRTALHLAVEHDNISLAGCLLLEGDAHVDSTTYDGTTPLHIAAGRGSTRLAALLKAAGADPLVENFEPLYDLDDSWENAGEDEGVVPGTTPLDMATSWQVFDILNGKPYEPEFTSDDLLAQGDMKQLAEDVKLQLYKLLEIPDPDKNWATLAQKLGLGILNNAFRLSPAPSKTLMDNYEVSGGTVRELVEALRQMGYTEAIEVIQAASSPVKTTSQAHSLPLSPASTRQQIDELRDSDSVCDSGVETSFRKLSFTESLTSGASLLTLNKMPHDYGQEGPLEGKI
Sequence of Nuclear factor NF-kappa-B complex (Homo sapiens) (Q00653 whole entry, looked up): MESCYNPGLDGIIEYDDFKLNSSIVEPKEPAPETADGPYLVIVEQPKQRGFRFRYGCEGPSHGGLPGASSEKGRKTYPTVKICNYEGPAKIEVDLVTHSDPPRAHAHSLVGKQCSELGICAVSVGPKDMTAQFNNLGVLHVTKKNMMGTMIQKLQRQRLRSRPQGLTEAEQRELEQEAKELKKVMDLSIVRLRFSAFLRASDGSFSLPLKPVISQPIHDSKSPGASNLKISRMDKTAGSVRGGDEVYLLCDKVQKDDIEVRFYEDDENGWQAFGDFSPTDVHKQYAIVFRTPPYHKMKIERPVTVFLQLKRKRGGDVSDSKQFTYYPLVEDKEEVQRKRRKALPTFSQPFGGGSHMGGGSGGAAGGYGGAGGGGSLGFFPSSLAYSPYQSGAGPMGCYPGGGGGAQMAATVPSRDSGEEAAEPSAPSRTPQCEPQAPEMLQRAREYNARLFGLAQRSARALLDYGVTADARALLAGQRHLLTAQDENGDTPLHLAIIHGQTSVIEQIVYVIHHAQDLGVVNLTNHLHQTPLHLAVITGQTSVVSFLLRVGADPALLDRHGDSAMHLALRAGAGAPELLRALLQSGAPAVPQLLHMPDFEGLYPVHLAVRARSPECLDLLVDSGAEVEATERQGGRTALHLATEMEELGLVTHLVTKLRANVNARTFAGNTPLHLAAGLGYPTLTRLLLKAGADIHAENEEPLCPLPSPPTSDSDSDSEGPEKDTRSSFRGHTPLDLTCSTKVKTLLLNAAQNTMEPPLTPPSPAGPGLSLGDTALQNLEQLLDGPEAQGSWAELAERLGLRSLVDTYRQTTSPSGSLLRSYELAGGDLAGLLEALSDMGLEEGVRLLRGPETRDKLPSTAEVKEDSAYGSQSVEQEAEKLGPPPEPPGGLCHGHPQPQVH
Sequence of Nuclear factor NF-kappa-B complex (Homo sapiens) (Q04206 whole entry, looked up): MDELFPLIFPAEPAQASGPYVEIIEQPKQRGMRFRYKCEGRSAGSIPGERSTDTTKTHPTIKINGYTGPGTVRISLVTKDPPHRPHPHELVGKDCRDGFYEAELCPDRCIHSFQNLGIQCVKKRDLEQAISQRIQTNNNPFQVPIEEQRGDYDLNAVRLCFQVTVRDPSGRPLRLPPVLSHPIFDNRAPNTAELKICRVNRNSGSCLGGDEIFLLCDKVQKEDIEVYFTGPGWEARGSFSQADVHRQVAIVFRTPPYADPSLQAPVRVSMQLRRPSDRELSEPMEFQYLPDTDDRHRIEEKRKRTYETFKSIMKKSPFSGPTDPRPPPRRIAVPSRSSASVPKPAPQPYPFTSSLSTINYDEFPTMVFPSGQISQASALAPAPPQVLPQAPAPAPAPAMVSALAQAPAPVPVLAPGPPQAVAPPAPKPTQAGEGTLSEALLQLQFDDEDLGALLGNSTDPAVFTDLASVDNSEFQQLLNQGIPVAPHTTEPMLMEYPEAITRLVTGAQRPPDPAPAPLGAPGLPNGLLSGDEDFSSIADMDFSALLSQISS

[29] = molecular target: Epidermal growth factor receptor (Homo sapiens, UniProt P00533); assay: Inhibition of EGFR (unknown origin)
Sequence of Epidermal growth factor receptor (P00533 whole entry): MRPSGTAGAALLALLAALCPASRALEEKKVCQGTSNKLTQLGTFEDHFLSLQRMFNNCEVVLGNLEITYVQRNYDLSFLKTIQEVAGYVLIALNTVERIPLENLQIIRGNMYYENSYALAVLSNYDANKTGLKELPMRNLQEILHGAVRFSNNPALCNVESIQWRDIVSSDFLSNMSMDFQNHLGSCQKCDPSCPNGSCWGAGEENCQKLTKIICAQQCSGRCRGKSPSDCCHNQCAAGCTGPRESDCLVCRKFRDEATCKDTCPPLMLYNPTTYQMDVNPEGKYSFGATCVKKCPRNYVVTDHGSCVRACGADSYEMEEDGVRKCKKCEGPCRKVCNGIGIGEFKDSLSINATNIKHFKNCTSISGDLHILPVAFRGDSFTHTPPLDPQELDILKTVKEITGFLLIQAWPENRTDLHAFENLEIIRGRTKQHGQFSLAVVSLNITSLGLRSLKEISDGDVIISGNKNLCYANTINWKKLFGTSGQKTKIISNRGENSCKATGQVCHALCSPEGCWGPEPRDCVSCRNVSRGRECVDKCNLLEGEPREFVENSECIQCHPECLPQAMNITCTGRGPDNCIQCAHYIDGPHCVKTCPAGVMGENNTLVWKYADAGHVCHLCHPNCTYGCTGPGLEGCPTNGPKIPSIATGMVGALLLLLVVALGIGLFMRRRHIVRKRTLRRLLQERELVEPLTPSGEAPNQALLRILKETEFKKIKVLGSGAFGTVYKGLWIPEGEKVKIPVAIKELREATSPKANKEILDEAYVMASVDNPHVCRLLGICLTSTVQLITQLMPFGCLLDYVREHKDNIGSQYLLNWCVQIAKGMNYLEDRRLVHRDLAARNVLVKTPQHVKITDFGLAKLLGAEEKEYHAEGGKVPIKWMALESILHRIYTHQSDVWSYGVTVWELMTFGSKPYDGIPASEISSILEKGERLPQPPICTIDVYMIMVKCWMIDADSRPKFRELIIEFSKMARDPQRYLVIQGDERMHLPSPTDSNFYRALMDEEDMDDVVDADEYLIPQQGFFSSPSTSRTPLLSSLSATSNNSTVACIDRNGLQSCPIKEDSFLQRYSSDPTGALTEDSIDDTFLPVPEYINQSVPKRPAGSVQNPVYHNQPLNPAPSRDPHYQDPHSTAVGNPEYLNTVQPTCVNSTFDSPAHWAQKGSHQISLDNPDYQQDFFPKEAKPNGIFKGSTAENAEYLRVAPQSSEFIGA

Nc1nc(-c2ccc(Oc3ccc(Cl)cc3)cc2)cs1
IC50 (HepG2 [1]): 4.67 µM
IC50 (HCT-116 [2]): 3.81 µM
IC50 (T47D): 917 nM
IC50 (K562 [3]): 12.4 µM
IC50 (SMMC-7721): 1610 nM

C/C(=N\NC(=O)/C(C#N)=C1\SC=C(O)N1c1ccccc1)C1CC[C@@]2(C)[C@]3(C)CC=C4C[C@@H](O)CC[C@]4(C)[C@@]3(C)CC[C@]12C (some centres not stated)
GI50 (NCI-H460 [4]): 90 nM
GI50 (MCF7 [5]): 40 nM

CCOC(=O)/C(C(C)=O)=C1/SC=C(n2c(CC#N)nc3ccccc32)N1c1ccccc1
IC50 (NCI-H460 [6]): 230 nM
IC50 (A549 [7]): 230 nM
IC50 (HT-29): 230 nM
IC50 (MKN-45): 230 nM
IC50 [8]: 230 nM
IC50 (SMMC-7721): 230 nM

O=S(=O)(Nc1ccc(-c2csc(N/N=C/c3ccc(N(CCCl)CCCl)cc3)n2)cc1)c1ccc(C(F)(F)F)cc1
IC50 (MV4-11): 2170 nM
IC50 (HCT-116 [2]): 3.02 µg/mL
IC50 (MCF7 [9]): 3.02 µg/mL (≈ 4.7 µM)

O=C1N/C(=N/c2ccc(-c3nc4ccccc4s3)cc2)S/C1=C/c1ccc([N+](=O)[O-])cc1
IC50 (HepG2 [10]): 36 nM
IC50 (MCF7 [11]): 48 nM

CC1=CS/C(=C(/C#N)C(=O)N/N=C(\C)C2CC[C@@]3(C)[C@]4(C)CC=C5C[C@@H](O)CC[C@]5(C)[C@@]4(C)CC[C@]23C)N1c1ccccc1 (some centres not stated)
GI50 (NCI-H460 [4]): 10 nM
GI50 (MCF7 [5]): 20 nM

COc1ccc(/N=N/c2sc(N/N=C(/C)c3sc(N)nc3C)nc2C)cc1
IC50 (HepG2 [12]): 500 nM

Nc1ccccc1C(=O)Nn1c(-c2ccc(Cl)cc2)cs/c1=N/c1ccc([N+](=O)[O-])cc1
IC50 (MCF7 [13]): 5.37 µM
IC50 (MDA-MB-231): 5.37 µM
IC50 (HCT-116 [14]): 5.37 µM
IC50 (HeLa [15]): 5.37 µM

O=c1[nH]cc(F)c(=O)[nH]1 [FLUOROURACIL]
IC50 (MCF7 [16]): 5.5 µg/mL (≈ 42.3 µM)
Activity (A549 [17]): 57%

Cc1ccc2[nH]cc3c(=O)n(-c4nc5ccccc5s4)nc-3c2c1
IC50 (MDA-MB-435): < 5 µg/mL
IC50 (HL-60): < 5 µg/mL
IC50 (SF-295): < 5 µg/mL

Cc1cccc(N(c2cccc(Cl)c2)c2c3ccccc3nc3scnc23)c1
IC50 (K562 [18]): 5.69 µM
IC50 (HeLa [19]): 5.69 µM

C/C(=N/Nc1nc(C)c(/N=N/c2ccccc2)s1)c1sc(N)nc1C
IC50 (HepG2 [12]): 840 nM

CC(=O)C(C(C)=O)=C1SC(n2nc(O)cc2N)=CN1c1ccccc1
GI50 (SF-268): 10 nM

N#CC(C#N)=C1SC(n2nc(O)cc2N)=CN1c1ccccc1
GI50 (SF-268): 10 nM

COc1ccc(C2SC(N)=NC2c2cc(OC)c(OC)c(OC)c2)cc1N (configuration not stated)
IC50 (Tubulin): 1 µM
IC50 (Colon 26 [20]): 57.5 nM
Activity (Colon 26 [21]): 75%

N#Cc1ccc(Oc2ccc(/C=N/Nc3nc(-c4ccc(C#N)cc4)cs3)cc2)cc1
Activity (A549 [22]): 2.3%
Activity (C6 [23]): 4.6%
Activity (A549 [24]): 36.5%
Activity (C6 [25]): 28.2%
inhibition (C6 [26]): 71.7%

Clc1ccc(-c2csc(N/N=C/c3ccccn3)n2)cc1
IC50 [27]: > 30 µM

CNc1nc(C)c(-c2nc3ccccc3c(=O)n2-c2ccc(Cl)cc2)s1
IC [28]: 3.3 µM

Clc1cccc(Nc2c3ccccc3nc3sc(NCCN4CCCCC4)nc23)c1
IC50 (K562 [18]): 5.69 µM
IC50 (HeLa [19]): 5.69 µM

C/C(=N/Nc1nc(C)c(/N=N/c2ccccc2)s1)c1nnn(-c2ccccc2)c1C
IC50 (HepG2 [10]): 3410 nM
IC50 (MCF7 [11]): 1120 nM

C/C(=N/Nc1nc(C)c(/N=N/c2ccc(Cl)cc2)s1)c1sc(N)nc1C
IC50 (HepG2 [12]): 520 nM

Cc1cc(Cl)cc(C(=O)NC2CCCCC2)c1NC(=O)c1sc(-c2ccccc2Cl)nc1C(F)(F)F
Activity (A549 [17]): 48%

O=C1N/C(=N/c2ccc(-c3nc4ccccc4o3)cc2)S/C1=C/c1ccc(Cl)cc1
IC50 (MCF7 [11]): 19 nM

O=C(Nn1c(-c2ccc(Br)cc2)cs/c1=N\c1ccc([N+](=O)[O-])cc1)c1ccc(Cl)cc1
IC50 (MCF7 [13]): 5.37 µM
IC50 (MDA-MB-231): 5.37 µM
IC50 (HCT-116 [14]): 5.37 µM
IC50 (HeLa [15]): 5.37 µM
IC50 [29]: 8.28 µM
